Test results taken from US6844343B1, “N-substituted 4-aminopteridines, synthesis and use thereof as pharmaceutical agent” (Vasopharm Biotech GmbH, priority 1999, dated 2005).
pIC50: −log10 of the molar value.

Legend:
[1] = tested on: purified NO synthase from pig cerebellum or from pig liver; test: Activity assay of purified NOS (3H-L-arginine to 3H-L-citrulline conversion); format: biochemical; details: incubated in the presence of 5 kU/ml catalase for 45 minutes
[2] = tested on: purified NO synthase from pig cerebellum or from pig liver; test: as above; format: biochemical; details: substance 100 μM, in the presence of 2 μM tetrahydrobiopterin, 15 min at 37° C.
Procedure: The inhibition of the activity of purified nitric oxide synthase (NOS) by compounds of the general formula I can be determined as follows.
(§1) In this activity assay the L-citrulline which is a coproduct of the formation of NO by purified NOS is quantitatively measured. ^3H-radiolabeled L-arginine is employed as substrate of the enzyme reaction and is converted into ^3H-L-citrulline and NO. After completion of the enzyme incubation, generated L-citrulline is removed from unused L-arginine by ion exchange chromatography from the reaction mixture; the ^3H activity measured by liquid scintillation then is corresponds to the amount of L-citrulline, which is a direct measure of the activity of NOS.
The basic medium for carrying out the enzyme reaction is TE buffer (triethanolamine, EDTA, pH 7.0).
The final volume of each incubation is 100 μl. The reaction mixture is obtained by mixing the following 6 components on ice: • 1. “REA-Mix” (pH 7.0) which contains triethanolamine, calcium chloride, magnesium chloride, EDTA, L-arginine, calmodulin and flavin adenine dinucleotide (FAD); • 2. freshly prepared stock solution of β-nicotinamide adenine dinucleotide phosphate, reduced form (NADPH); • 3. (6R)-5,6,7,8-tetrahydro-L-biopterin dihydro-chloride stock solution (BH4) or —for experiments without BH4-instead TE buffer; • 4. purified NO synthase from pig cerebellum or from pig liver; • 5.
(§2) After mixing of the components on ice, the reaction mixture was immediately incubated in a water bath at 37° C. for 15 minutes. […] After this incubation time, the reaction was stopped by addition of 900 μl of ice-cold “stop buffer” (20 mM sodium acetate, 2 mM EDTA, pH 5.5), and the mixture (total volume now 1.0 ml) was placed on ice. To remove the unreacted ^3H-L-arginine, the mixture was loaded onto an ion exchange column with 0.8 ml of Dowex AG 50 WX-8 (100-200 mesh) which has previously been washed and equilibrated with 2 ml of stop buffer. After loading of the sample, the column was eluted twice with 1 ml of water each time. The flow-through of the sample and the eluate were collected in scintillation vessels and […] (total volume 3 ml). 9 ml of scintillator solution were added to the 3 ml of aqueous measurement solution, and the homogeneous mixture was measured in a Tricarb 2500 TR (Packard) liquid scintillation counter for 1 minute for each sample. […] Each substance was tested for an antagonistic effect in a concentration of 100 μM in the presence of 2 μM tetrahydrobiopterin, and for an agonistic effect on NOS in the absence of tetrahydrobiopterin.
All incubations were carried out on triplicates. Each experiment was repeated three times with different enzyme preparations.

NOS-II = NOS-II (Homo sapiens, UniProt P35228); test: Inhibition of human NOS isoforms: NOS-II; format: biochemical
Procedure: (§3) After mixing of the components on ice, the reaction mixture was immediately incubated in a water bath at 37° C. for 15 minutes. […] After this incubation time, the reaction was stopped by addition of 900 μl of ice-cold “stop buffer” (20 mM sodium acetate, 2 mM EDTA, pH 5.5), and the mixture (total volume now 1.0 ml) was placed on ice. To remove the unreacted ^3H-L-arginine, the mixture was loaded onto an ion exchange column with 0.8 ml of Dowex AG 50 WX-8 (100-200 mesh) which has previously been washed and equilibrated with 2 ml of stop buffer. After loading of the sample, the column was eluted twice with 1 ml of water each time. The flow-through of the sample and the eluate were collected in scintillation vessels and […] (total volume 3 ml). 9 ml of scintillator solution were added to the 3 ml of aqueous measurement solution, and the homogeneous mixture was measured in a Tricarb 2500 TR (Packard) liquid scintillation counter for 1 minute for each sample. […] In addition, the relative selectivities of the antipterin inhibitors for the three known human NOS isoforms were measured. So doing, the IC50 values for NOS-II/NOS-I and NOS-III/NOS-I were formed (compare Table 2).

NOS-III = NOS-III (Homo sapiens, UniProt P29474); test: Inhibition of human NOS isoforms: NOS-III; format: biochemical
Procedure: as §3

NOS-I = NOS-I (Homo sapiens, UniProt P29475); test: Inhibition of human NOS isoforms: NOS-I; format: biochemical
Procedure: as §1, §2
In addition, the relative selectivities of the antipterin inhibitors for the three known human NOS isoforms were measured. So doing, the IC50 values for NOS-II/NOS-I and NOS-III/NOS-I were formed (compare Table 2).

[3] = tested on: intact rat alveolar macrophages; details: cited from earlier work
NO synthase = details: literature reports on BH4 analogues; cited from earlier work

## 2-amino-4-(dibenzylamino)-6-(3,4-dimethoxyphenyl)-pteridine hemihydrate [Example 22]
[1]
  pIC50: 5.70
[2]
  Remaining activity (% of Vmax): 0 % of Vmax

## 2-amino-4-(diethylamino)-6-(4-chlorophenyl)-5,6,7,8-tetrahydropteridine dihydrochloride hemi-hydrate [Example 48]
[1]
  pIC50: 5.10
NOS-II; human NOS-II
  Activity (% of control): 74 ± 4 % of control
NOS-II; human NOS-II, enzyme inhibition not complete up to 300 μM, IC50 values extrapolated
  pIC50: 3.52
NOS-II; ratio of IC50 values NOS-II/NOS-I
  Ratio NOS-II/I: 7.2
NOS-III; human NOS-III
  Activity (% of control): 27 ± 1 % of control
  pIC50: 4.34
NOS-III; ratio of IC50 values NOS-III/NOS-I
  Ratio NOS-III/I: 1.1
[2]
  Remaining activity (% of Vmax): 0 % of Vmax
NOS-I
  Activity (% of control): 2 ± 0 % of control
  pIC50: 4.38

## Nc1nc(N(Cc2ccccc2)Cc2ccccc2)c2nc(-c3ccc(Cl)cc3)cnc2n1.O.O [Example 20, 2-amino-4-(dibenzylamino)-6-(4-chlorophenyl)-pteridine dihydrate]
[1]
  pIC50: 5.46
[2]
  Remaining activity (% of Vmax): 0 % of Vmax

## COc1ccc(-c2cnc3nc(N)nc(N(Cc4ccccc4)Cc4ccccc4)c3n2)cc1 [Example 21, 2-amino-4-(dibenzylamino)-6-(4-methoxyphenyl)-pteridine]
NOS-II; human NOS-II
  Activity (% of control): 81 ± 6 % of control
NOS-III; human NOS-III
  Activity (% of control): 68 ± 2 % of control
[2]
  Remaining activity (% of Vmax): 0 ± 0.05 % of Vmax
NOS-I
  Activity (% of control): 27 ± 1 % of control

## CCCN(CCC)c1nc(N)nc2c1NC(c1ccccc1)CN2.Cl.Cl.Cl.O (stereo not shown) [Example 46, 2-amino-4-(di-n-propylamino)-6-phenyl-5,6,7,8-tetrahydropteridine trihydrochloride hydrate]
NOS-II; human NOS-II
  Activity (% of control): 68 ± 1 % of control
NOS-III; human NOS-III
  Activity (% of control): 27 ± 0.2 % of control
[2]
  Remaining activity (% of Vmax): 8 ± 0.05 % of Vmax
NOS-I
  Activity (% of control): 1 ± 0.1 % of control

## CCCN(CCC)c1nc(N)nc2c1NC(c1ccc(OC)cc1)CN2.Cl.Cl.O.O (stereo not shown) [Example 47, 2-amino-4-(di-n-propylamino)-6-(4-methoxyphenyl)-5,6,7,8-tetrahydropteridine dihydrochloride dihydrate]
NOS-II; human NOS-II
  Activity (% of control): 78 ± 0.4 % of control
NOS-III; human NOS-III
  Activity (% of control): 31 ± 3 % of control
[2]
  Remaining activity (% of Vmax): 0 % of Vmax
NOS-I
  Activity (% of control): 0 ± 0.1 % of control

## Nc1nc(NCC2CCCCC2)c2c(n1)NCC(c1ccc(Cl)cc1)N2 (stereo not shown) [Example 49, 2-amino-4-(cyclohexylmethylamino)-6-(4-chloro-phenyl)-5,6,7,8-tetrahydropteridine dihydro-chloride hydrate]
NOS-II; human NOS-II
  Activity (% of control): 78 ± 6 % of control
NOS-III; human NOS-III
  Activity (% of control): 18 ± 1 % of control
[2]
  Remaining activity (% of Vmax): 0 % of Vmax
NOS-I
  Activity (% of control): 0 ± 0.1 % of control

## Nc1nc2ncc(C(=O)O)nc2c(=O)[nH]1 [Pterin-6-carboxylic acid]
[3]
  inhibition of NO production: no effect

## Nc1nc2c(c(=O)[nH]1)N=C(CNc1ccc(C(=O)N[C@@H](CCC(=O)O)C(=O)O)cc1)CN2 [dihydrofolic acid]
NO synthase
  effect on NO production / NO synthase: no significant effects

## Nc1nc2c(c(=O)[nH]1)N=C([C@H](O)[C@H](O)CO)CN2 [dihydroneopterin]
NO synthase
  effect on NO production / NO synthase: no significant effects

## Nc1nc2ncc(CNc3ccc(C(=O)N[C@@H](CCC(=O)O)C(=O)O)cc3)nc2c(=O)[nH]1 [folic acid]
NO synthase
  effect on NO production / NO synthase: no significant effects

## Nc1nc2[nH]c(=O)cnc2c(=O)[nH]1 [isoxanthopterin]
NO synthase
  effect on NO production / NO synthase: no significant effects

## CN(Cc1cnc2nc(N)nc(N)c2n1)c1ccc(C(=O)N[C@@H](CCC(=O)O)C(=O)O)cc1 [methotrexate]
NO synthase
  effect on NO production / NO synthase: no significant effects

## Nc1nc2ncc([C@H](O)[C@H](O)CO)nc2c(=O)[nH]1 [neopterin]
NO synthase
  effect on NO production / NO synthase: no significant effects

## Nc1nc2nccnc2c(=O)[nH]1 [pterin]
NO synthase
  effect on NO production / NO synthase: no significant effects

## C[C@H](O)C(=O)C1=Nc2c(nc(N)[nH]c2=O)NC1 [sepiapterin]
[3]
  inhibition of NO production: inhibition of NO production

## Nc1nc2c(c(=O)[nH]1)NC(C(O)C(O)CO)CN2 (stereo not shown) [tetrahydro-neopterin]
NO synthase
  effect on NO production / NO synthase: no significant effects

## Nc1nc2c(c(=O)[nH]1)NC(CNc1ccc(C(=O)N[C@@H](CCC(=O)O)C(=O)O)cc1)CN2 (stereo partly shown) [tetrahydrofolic acid]
NO synthase
  effect on NO production / NO synthase: no significant effects

## Nc1nc(=O)c2[nH]c(=O)cnc2[nH]1 [xanthopterin]
NO synthase
  effect on NO production / NO synthase: no significant effects

## Biopterin
NO synthase
  effect on NO production / NO synthase: no significant effects
